Results as given in patent US12084473B2, “β-D-2′-deoxy-2′-α-fluoro-2′-β-C-substituted-2-modified-N6-substituted purine nucleotides for HCV treatment” (Atea Pharmaceuticals, Inc., priority 2015, dated 2024).

How the values were obtained:
other RNA or DNA viruses = assay: Activity against other RNA or DNA viruses; format: cell-based; settings: at concentrations up to 100 μM
[1] = tested on: HCV Genotype 3a-1, NS5B Mutation none; assay: microbe, parasite or virus in culture; format: cell-based; settings: for IC50: Hepatitis C virus, read-out: IC50 Value; for Fold Change in IC50 from Sofosbuvir / Fold Change in IC95 from Sofosbuvir / IC95 Value: genotype 3a-1, no NS5B mutation
Outline: (§1)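 Relative replicon replication sensitivity to test compounds is measured in Huh-7 cells. Cells carry electroporated RTVs encoding patient-derived NS5B, wild-type or resistance-associated.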

[2] = tested on: HCV Genotype 1a, NS5B Mutation none; assay: microbe, parasite or virus in culture; format: cell-based; settings: for IC50: Hepatitis C virus, read-out: IC50 Value; for Fold Change in IC50 from Sofosbuvir / Fold Change in IC95 from Sofosbuvir / IC95 Value: genotype 1a, no NS5B mutation
Outline: as §1

[3] = tested on: HCV Genotype 4a, NS5B Mutation none; assay: microbe, parasite or virus in culture; format: cell-based; settings: for IC50: Hepatitis C virus, read-out: IC50 Value; for Fold Change in IC50 from Sofosbuvir / Fold Change in IC95 from Sofosbuvir / IC95 Value: genotype 4a, no NS5B mutation
Outline: as §1

[4] = Human Bone Marrow Progenitor Cell Assay; format: cell-based; settings: human, fresh human bone marrow progenitor cells; read-out: CC50 in human bone marrow stem cells
Description: Fresh human bone marrow progenitor cells (Invitrogen) suspended in either BFU-E or GM-CSF-specific culture medium were added, at 10^5 cells/well, to triplicate serial dilutions of TA in 6-well plates. After 14-day incubations, colony counts were used to determine CC50 values. BFU-E colonies were confirmed using the benzidene technique.

host cell lines = assay: Toxicity in host cell lines; format: cell-based; settings: at concentrations up to 100 μM
human DNA polymerase α = biological target: T1, human DNA polymerase α (Homo sapiens, UniProt P09884); assay: Human DNA Polymerase Assays; format: biochemical; settings: at concentrations up to 100 μM
T1 construct: purchased CHIMERx
T1 sequence (P09884 1-1462): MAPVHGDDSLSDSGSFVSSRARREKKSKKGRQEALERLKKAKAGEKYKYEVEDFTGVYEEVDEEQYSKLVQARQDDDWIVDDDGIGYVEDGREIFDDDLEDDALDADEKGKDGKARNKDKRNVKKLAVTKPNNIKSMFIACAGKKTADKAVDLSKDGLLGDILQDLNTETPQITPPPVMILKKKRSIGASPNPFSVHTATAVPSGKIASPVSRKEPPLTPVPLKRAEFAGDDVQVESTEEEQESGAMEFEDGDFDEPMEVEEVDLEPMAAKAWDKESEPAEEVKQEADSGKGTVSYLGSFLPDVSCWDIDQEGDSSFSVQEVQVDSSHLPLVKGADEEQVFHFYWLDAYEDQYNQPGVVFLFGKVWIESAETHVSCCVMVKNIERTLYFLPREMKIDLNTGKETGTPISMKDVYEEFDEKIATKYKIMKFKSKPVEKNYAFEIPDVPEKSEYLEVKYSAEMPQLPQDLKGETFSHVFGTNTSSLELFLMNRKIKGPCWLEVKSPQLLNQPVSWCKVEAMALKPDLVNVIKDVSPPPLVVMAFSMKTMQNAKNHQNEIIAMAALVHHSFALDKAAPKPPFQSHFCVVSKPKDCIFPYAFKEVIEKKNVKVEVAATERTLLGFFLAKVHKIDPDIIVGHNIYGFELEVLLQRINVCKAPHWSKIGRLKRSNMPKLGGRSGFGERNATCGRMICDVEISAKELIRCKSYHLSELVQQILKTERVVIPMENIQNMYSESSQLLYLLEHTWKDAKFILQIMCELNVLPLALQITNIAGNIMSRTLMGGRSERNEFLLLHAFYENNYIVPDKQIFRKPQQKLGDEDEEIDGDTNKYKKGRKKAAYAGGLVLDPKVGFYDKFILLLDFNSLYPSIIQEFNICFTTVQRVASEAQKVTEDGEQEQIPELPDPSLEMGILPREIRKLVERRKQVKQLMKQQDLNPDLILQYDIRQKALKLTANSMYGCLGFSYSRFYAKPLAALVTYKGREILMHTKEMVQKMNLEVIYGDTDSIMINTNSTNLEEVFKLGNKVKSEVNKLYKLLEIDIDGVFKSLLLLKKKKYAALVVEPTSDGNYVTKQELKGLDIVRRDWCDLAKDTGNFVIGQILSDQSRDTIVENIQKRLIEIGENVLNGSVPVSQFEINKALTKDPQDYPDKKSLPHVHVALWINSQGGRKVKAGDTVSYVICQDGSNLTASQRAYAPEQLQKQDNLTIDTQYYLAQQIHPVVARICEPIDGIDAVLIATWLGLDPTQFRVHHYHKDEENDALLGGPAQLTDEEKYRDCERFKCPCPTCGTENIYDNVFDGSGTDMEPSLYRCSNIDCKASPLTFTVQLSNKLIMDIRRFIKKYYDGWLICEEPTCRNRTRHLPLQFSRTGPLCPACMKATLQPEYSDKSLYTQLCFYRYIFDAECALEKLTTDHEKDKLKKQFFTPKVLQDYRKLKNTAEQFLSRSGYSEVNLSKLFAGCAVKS
Description: Inhibition of human DNA polymerases α, β and γ (CHIMERx) was determined in triplicate in reaction mixtures of serially diluted TA, 0.05 mM dCTP, dTTP, and dATP, 10 μCi [^32P]-α-dGTP (800 Ci/mmol), 20 μg activated calf thymus DNA and additional reagents specific for each polymerase.

iPS Cardiomyocytes = assay: iPS Cardiomyocyte Assay; format: cell-based, human; settings: 3 days, XTT
Description: iPS Cardiomyocytes (Cellular Dynamics) were seeded in microliter plates at 1.5×10^4 cells per well. After 48-hr incubation, cells were washed and maintenance medium containing serially diluted TA was added in triplicate. After incubating for an additional 3 days, cell viability was measured by staining with XTT and CC50 values were calculated.

SMILES | activity against other RNA or DNA viruses (other RNA or DNA viruses) | IC50 [1] [nM] | Fold Change in IC50 from Sofosbuvir [1] | Fold Change in IC95 from Sofosbuvir [1] | IC95 Value [1] [nM] | IC50 [2] [nM] | Fold Change in IC50 from Sofosbuvir [2] | Fold Change in IC95 from Sofosbuvir [2] | IC95 Value [2] [nM] | IC50 [3] [nM] | Fold Change in IC50 from Sofosbuvir [3] | Fold Change in IC95 from Sofosbuvir [3] | IC95 Value [3] [nM] | CC50 at 14 day [4] [nM] | toxicity in all host cell lines (host cell lines) | inhibition of human DNA polymerase α (human DNA polymerase α) | cytotoxicity against iPS cardiomyocytes in vitro (iPS Cardiomyocytes)
CC(C)OC(=O)[C@H](C)N[P@](=O)(OCC1O[C@@H](n2cnc3c(N(C)C4CC4)nc(N)nc32)[C@](C)(F)[C@@H]1O)Oc1ccccc1 (stereo partly drawn) [Compound 27, isopropyl ((((S)-(2R,3R,4R,5R)-5-(2-amino-6-(methylcyclopropanamino)-9H-purin-9-yl)-4-fluoro-3-hydroxy-4-methyltetrahydrofuran-2-yl)methoxy)-phenoxy-phosphoryl)-L-alaninate] | no activity | 4.4 | 28.4 | 27.2 | 25.4 | 4.2 | 15.0 | 19.3 | 26.4 | 3.6 | 20.7 | 17.9 | 38.1 | > 100000 | no toxicity | No inhibition | no cytotoxicity
CNc1nc(N)nc2c1ncn2[C@@H]1OC(CO[P@@](=O)(N[C@@H](C)C(=O)OC(C)C)Oc2ccccc2)[C@@H](O)[C@@]1(C)F (some centres unmarked) [Compound 5-2] | – | 11.8 | 10.7 | 11.6 | 59.3 | 10.5 | 6.0 | 8.4 | 60.8 | 9.9 | 7.5 | 9.2 | 74.4 | – | – | – | no cytotoxicity
CC(C)OC(=O)[C@H](C)N[P@](=O)(OCC1O[C@@H](n2cnc3c(N(C)C)nc(N)nc32)[C@](C)(F)[C@@H]1O)Oc1ccccc1 (stereo partly drawn) [Compound 25, isopropyl ((((S)-(2R,3R,4R,5R)-5-(2-amino-6-(dimethylamino)-9H-purin-9-yl)-4-fluoro-3-hydroxy-4-methyltetrahydrofuran-2-yl)methoxy)-phenoxy-phosphoryl)-L-alaninate] | no activity | 5.1 | 24.5 | 24.8 | 27.8 | 4.4 | 14.2 | 16.2 | 31.3 | 4.6 | 16.2 | 20.7 | 33.0 | > 100000 | no toxicity | No inhibition | no cytotoxicity
